The values below are quoted from earlier work in article PMC12785453, “Oral Fluid Concentrations and Pharmacological Effects of Clephedrone and Methylone in Humans” (International Journal of Molecular Sciences, 2025).

“And” between values parts separate entries of the source, which are not always exact repeats. Equal entries are not always repeated.

One data set has as its system humans. The note with it: mephedrone, previous studies; cited from earlier work.
For data set [1] the following is noted: cited from earlier work.

`CNC(C)C(=O)c1ccc(C)cc1` (stereo not shown) [mephedrone, 4-methylmethcathinone]: in the data set with humans, the “Effects returned to baseline after” value was 2 to 3 h; the “Time of peak effects” value is 0.75 h and 0.75 to 1 h. For the same compound, in data set [1], the “Tmax in oral fluid” value is 2 h and the Tmax in plasma is listed as 1.25 h.
